Reference: patent US12077503B2, “Substituted cyclic amides and their use as herbicides” (FMC CORPORATION, priority 2015, dated 2024)

What was measured:
Format in all cases: in vivo
[1] = system: ryegrass, Italian (Italian ryegrass, Lolium multiflorum); test: Test A preemergence; details: Preemergence; for Plant response rating, Ryegrass, Italian: 125 g ai/ha, visual injury after approximately 10 d, 0 to 100 scale where 0 is no effect and 100 is complete control; for Ryegrass, Italian plant response rating (0 to 100 scale, 0 is no effect, 100 is complete control): 500 g ai/ha, visual injury approx. 10 d
From the text: (§1) Seeds of plant species selected from barnyardgrass (Echinochloa crus-galli), Kochia (Kochia scoparia), ragweed (common ragweed, Ambrosia elatior), ryegrass, Italian (Italian ryegrass, Lolium multiflorum), crabgrass, large (Digitaria sanguinalis), giant foxtail (Setaria faberii), green foxtail (Setaria viridis), morningglory (Ipomoea spp.), pigweed (Amaranthus retroflexus), velvetleaf (Abutilon theophrasti), wheat (Triticum aestivum), and corn (Zea mays) were planted into a blend of loam soil and sand and treated preemergence with a directed soil spray using test chemicals formulated in anon-phytotoxic solvent mixture which included a surfactant.
(§2) At the same time, plants selected from these crop and weed species and also blackgrass (Alopecurus myosuroides), and Galium (catchweed bedstraw, Galium aparine) were planted in pots containing the same blend of loam soil and sand and treated with postemergence applications of test chemicals formulated in the same manner. Plants ranged in height from 2 to 10 cm and were in the one- to two-leaf stage for the postemergence treatment. Treated plants and untreated controls were maintained in a greenhouse for approximately 10 d, after which time all treated plants were compared to untreated controls and visually evaluated for injury. Plant response ratings, summarized in Table A, are based on a 0 to 100 scale where 0 is no effect and 100 is complete control. A dash (-) response means no test result.

[2] = system: ragweed (common ragweed, Ambrosia elatior); test: Test A preemergence; details: Preemergence; for Plant response rating, Ragweed: 125 g ai/ha, visual injury after approximately 10 d, 0 to 100 scale where 0 is no effect and 100 is complete control; for Ragweed plant response rating (0 to 100 scale, 0 is no effect, 100 is complete control): 500 g ai/ha, visual injury approx. 10 d
From the text: as §1, §2

[3] = system: Kochia (Kochia scoparia); test: Test A preemergence; details: for Plant response rating, Kochia: 125 g ai/ha; for Kochia plant response rating (0 to 100 scale, 0 is no effect, 100 is complete control): 500 g ai/ha, visual injury approx. 10 d
From the text: as §1, §2

[4] = system: barnyardgrass (Echinochloa crus-galli); test: Test A preemergence; details: for Plant response rating, Barnyardgrass: 125 g ai/ha; for Barnyardgrass plant response rating (0 to 100 scale, 0 is no effect, 100 is complete control): 500 g ai/ha, visual injury approx. 10 d
From the text: as §1, §2

[5] = system: pigweed (Amaranthus retroflexus); test: Test A preemergence; details: Preemergence; for Plant response rating, Pigweed: 125 g ai/ha, visual injury after approximately 10 d, 0 to 100 scale where 0 is no effect and 100 is complete control; for Pigweed plant response rating (0 to 100 scale, 0 is no effect, 100 is complete control): 500 g ai/ha, visual injury approx. 10 d
From the text: as §1, §2

[6] = system: giant foxtail (Setaria faberii); test: Test A preemergence; details: for Plant response rating, Foxtail, Giant: 125 g ai/ha; for Foxtail, Giant plant response rating (0 to 100 scale, 0 is no effect, 100 is complete control): 500 g ai/ha, visual injury approx. 10 d
From the text: as §1, §2

[7] = system: ducksalad (Heteranthera limosa); test: Test B flooded paddy test; details: Flood, 250 g ai/ha; 0 to 100 scale where 0 is no effect and 100 is complete control; 13 to 15 d
Procedure: (§3) Plant species in the flooded paddy test selected from rice (Oryra sativa), sedge, umbrella (small-flower umbrella sedge, Cyperus difformis), ducksalad (Heteranthera limosa), and barnyardgrass (Echinochloa crus-galli) were grown to the 2-leaf stage for testing. At time of treatment, test pots were flooded to 3 cm above the soil surface, treated by application of test compounds directly to the paddy water, and then maintained at that water depth for the duration of the test. Treated plants and controls were maintained in a greenhouse for 13 to 15 d, after which time all species were compared to controls and visually evaluated. Plant response ratings, summarized in Table B, are based on a scale of 0 to 100 where 0 is no effect and 100 is complete control. A dash (-) response means no test result.

[8] = system: barnyardgrass (Echinochloa crus-galli); test: Test B flooded paddy test; details: Flood, 250 g ai/ha; 0 to 100 scale where 0 is no effect and 100 is complete control; 13 to 15 d
Procedure: as §3

[9] = system: rice (Oryra sativa); test: Test B flooded paddy test; details: Flood, 250 g ai/ha; 0 to 100 scale where 0 is no effect and 100 is complete control; 13 to 15 d
Procedure: as §3

[10] = system: sedge, umbrella (small-flower umbrella sedge, Cyperus difformis); test: Test B flooded paddy test; details: Flood, 250 g ai/ha; 0 to 100 scale where 0 is no effect and 100 is complete control; 13 to 15 d
Procedure: as §3

[11] = system: wheat (Triticum aestivum); test: Test A postemergence; details: for Wheat plant response rating: visual injury rating on 0 to 100 scale (0 no effect, 100 complete control), approx. 10 d
From the text: as §1, §2

[12] = system: ryegrass, Italian (Italian ryegrass, Lolium multiflorum); test: Test A postemergence; details: for Ryegrass, Italian plant response rating: visual injury rating on 0 to 100 scale (0 no effect, 100 complete control), approx. 10 d
From the text: as §1, §2

[13] = system: corn (Zea mays); test: Test A postemergence; details: for Corn plant response rating: visual injury rating on 0 to 100 scale (0 no effect, 100 complete control), approx. 10 d
From the text: as §1, §2

[14] = system: blackgrass (Alopecurus myosuroides); test: Test A postemergence; details: for Blackgrass plant response rating: visual injury rating on 0 to 100 scale (0 no effect, 100 complete control), approx. 10 d
From the text: as §1, §2

[15] = system: ragweed (common ragweed, Ambrosia elatior); test: Test A postemergence; details: for Ragweed plant response rating: visual injury rating on 0 to 100 scale (0 no effect, 100 complete control), approx. 10 d
From the text: as §1, §2

[16] = system: Kochia (Kochia scoparia); test: Test A postemergence; details: for Kochia plant response rating: visual injury rating on 0 to 100 scale (0 no effect, 100 complete control), approx. 10 d
From the text: as §1, §2

[17] = system: barnyardgrass (Echinochloa crus-galli); test: Test A postemergence; details: for Barnyardgrass plant response rating: visual injury rating on 0 to 100 scale (0 no effect, 100 complete control), approx. 10 d
From the text: as §1, §2

[18] = system: Galium (catchweed bedstraw, Galium aparine); test: Test A postemergence; details: for Galium plant response rating: visual injury rating on 0 to 100 scale (0 no effect, 100 complete control), approx. 10 d
From the text: as §1, §2

[19] = system: pigweed (Amaranthus retroflexus); test: Test A postemergence; details: for Pigweed plant response rating: visual injury rating on 0 to 100 scale (0 no effect, 100 complete control), approx. 10 d
From the text: as §1, §2

[20] = system: giant foxtail (Setaria faberii); test: Test A postemergence; details: for Foxtail, Giant plant response rating: visual injury rating on 0 to 100 scale (0 no effect, 100 complete control), approx. 10 d
From the text: as §1, §2

[21] = Preemergence, visual injury after approximately 10 d, 0 to 100 scale where 0 is no effect and 100 is complete control
[22] = 125 g ai/ha, postemergence, visual rating after approx. 10 d, 0 to 100 scale (0 no effect, 100 complete control)
[23] = Postemergence, 500 g ai/ha, 0 to 100 scale where 0 is no effect and 100 is complete control
[24] = preemergence, 0 to 100 scale (0 no effect, 100 complete control)
[25] = 500 g ai/ha, postemergence, 0 to 100 scale, 0 no effect, 100 complete control

| SMILES | Plant response rating, Ryegrass, Italian [1] | Ryegrass, Italian plant response rating (0 to 100 scale, 0 is no effect, 100 is complete control) [1] | Plant response rating, Ragweed [2] | Ragweed plant response rating (0 to 100 scale, 0 is no effect, 100 is complete control) [2] | Plant response rating, Kochia [3, 21] | Kochia plant response rating (0 to 100 scale, 0 is no effect, 100 is complete control) ([3]; Preemergence) | Barnyardgrass plant response rating (0 to 100 scale, 0 is no effect, 100 is complete control) ([4]; Preemergence) | Pigweed plant response rating (0 to 100 scale, 0 is no effect, 100 is complete control) [5] | Foxtail, Giant plant response rating (0 to 100 scale, 0 is no effect, 100 is complete control) ([6]; Preemergence) | Plant response rating, Ducksalad [7] | Plant response rating, Barnyardgrass [8] | Plant response rating, Rice [9] | Plant response rating, Sedge, Umbrella [10] | Plant response rating, Wheat [11, 23] | Plant response rating, Ryegrass, Italian [12, 23] | Plant response rating, Ragweed [15, 23] | Plant response rating, Kochia [16, 23] | Plant response rating, Galium [18, 23] | Plant response rating, Pigweed [19, 23] | Plant response rating, Foxtail, Giant [20, 23] | also measured |
| --- | --- | --- | --- | --- | --- | --- | --- | --- | --- | --- | --- | --- | --- | --- | --- | --- | --- | --- | --- | --- | --- |
| COc1c(F)ccc(NC(=O)C2C(=O)NCC2c2cc(F)cc(F)c2)c1F (racemic) [Compound 541] | 0 | 20 | 0 | 0 | 0 | 20 | 90 | 0 | 90 | 75 | 35 | 0 | 0 | 80 | 40 | 30 | 30 | 50 | 0 | 90 | Plant response rating, Barnyardgrass [4, 21]: 90; Plant response rating, Pigweed [5]: 0; Plant response rating, Foxtail, Giant [6, 21]: 90; Plant response rating, Wheat [11, 22]: 20; Plant response rating, Ryegrass, Italian [12, 22]: 20; Plant response rating, Corn [13, 22]: 0; Plant response rating, Corn [13, 23]: 60; Blackgrass plant response rating ([14]; 125 g ai/ha, postemergence): 30; Plant response rating, Blackgrass [14, 23]: 60; Plant response rating, Ragweed [15, 22]: 0; Plant response rating, Kochia [16, 22]: 0; Barnyardgrass plant response rating ([17]; 125 g ai/ha, postemergence): 90; Plant response rating, Barnyardgrass [17, 23]: 90; Plant response rating, Galium [18, 22]: 30; Plant response rating, Pigweed [19, 22]: 0; Plant response rating, Foxtail, Giant [20, 22]: 80 |
| CC(C)c1ccc(C2CNC(=O)C2C(=O)Nc2ccccc2S(C)(=O)=O)cc1 (racemic) [Compound 500] | 0 | 0 | 0 | 0 | 50 | 50 | 40 | 20 | 90 | 65 | 0 | 0 | 0 | 20 | 0 | 40 | 20 | 0 | 0 | 50 | Plant response rating, Barnyardgrass [4, 21]: 0; Plant response rating, Pigweed [5]: 0; Plant response rating, Foxtail, Giant [6, 21]: 80; Wheat plant response rating ([11]; 125 g ai/ha, postemergence): 0; Ryegrass, Italian plant response rating ([12]; 125 g ai/ha, postemergence): 0; Corn plant response rating ([13]; 125 g ai/ha, postemergence): 0; Plant response rating, Corn [13, 23]: 20; Blackgrass plant response rating ([14]; 125 g ai/ha, postemergence): 0; Plant response rating, Blackgrass [14, 23]: 0; Ragweed plant response rating ([15]; 125 g ai/ha, postemergence): 0; Kochia plant response rating ([16]; 125 g ai/ha, postemergence): 0; Barnyardgrass plant response rating ([17]; 125 g ai/ha, postemergence): 0; Plant response rating, Barnyardgrass [17, 23]: 50; Galium plant response rating ([18]; 125 g ai/ha, postemergence): 0; Pigweed plant response rating ([19]; 125 g ai/ha, postemergence): 0; Foxtail, Giant plant response rating ([20]; 125 g ai/ha, postemergence): 0 |
| O=C1NCC(c2cc(C(F)(F)F)ccc2F)C1C(=O)Nc1ccccc1F (stereo not shown) [Compound 593] | 0 | 50 | 0 | 0 | 0 | 0 | 90 | 0 | 90 | 80 | 60 | 15 | 0 | 40 | 30 | 0 | 0 | 20 | 0 | 90 | Plant response rating, Barnyardgrass [4, 21]: 90; Plant response rating, Foxtail, Giant [6, 21]: 90; Plant response rating, Wheat [11, 22]: 0; Plant response rating, Ryegrass, Italian [12, 22]: 0; Plant response rating, Corn [13, 22]: 30; Plant response rating, Corn [13, 23]: 70; Plant response rating, Blackgrass [14, 22]: 50; Plant response rating, Blackgrass [14, 23]: 60; Plant response rating, Ragweed [15, 22]: 0; Plant response rating, Kochia [16, 22]: 0; Plant response rating, Barnyardgrass [17, 22]: 90; Plant response rating, Barnyardgrass [17, 23]: 90; Plant response rating, Galium [18, 22]: 0; Plant response rating, Pigweed [19, 22]: 0; Plant response rating, Foxtail, Giant [20, 22]: 90 |
| CC(C)c1ccc(C2CNC(=O)C2C(=O)Nc2cccc(F)c2F)cc1 (stereo not shown) [Compound 470] | 0 | 30 | 0 | – | – | 40 | 90 | 20 | 90 | 85 | 0 | 0 | 0 | 0 | 20 | 0 | 0 | 0 | 0 | 80 | Plant response rating, Kochia [3, 24]: 70; Plant response rating, Barnyardgrass [4, 24]: 90; Plant response rating, Pigweed [5]: 0; Plant response rating, Foxtail, Giant [6, 24]: 90; Wheat plant response rating ([11]; 125 g ai/ha, postemergence): 0; Ryegrass, Italian plant response rating ([12]; 125 g ai/ha, postemergence): 0; Corn plant response rating ([13]; 125 g ai/ha, postemergence): 0; Plant response rating, Corn [13, 25]: 0; Blackgrass plant response rating ([14]; 125 g ai/ha, postemergence): 30; Plant response rating, Blackgrass [14, 25]: 50; Ragweed plant response rating ([15]; 125 g ai/ha, postemergence): 0; Kochia plant response rating ([16]; 125 g ai/ha, postemergence): 0; Barnyardgrass plant response rating ([17]; 125 g ai/ha, postemergence): 60; Plant response rating, Barnyardgrass [17, 25]: 70; Galium plant response rating ([18]; 125 g ai/ha, postemergence): 0; Pigweed plant response rating ([19]; 125 g ai/ha, postemergence): 0; Foxtail, Giant plant response rating ([20]; 125 g ai/ha, postemergence): 40 |
